In patent publication US20230051589A1, “COMPOUNDS AND COMPOSITIONS FOR TREATING CONDITIONS ASSOCIATED WITH NLRP ACTIVITY” (Novartis AG, priority 2018, published 2023):

The molecules below were run on IL-1β production in PMA-differentiated THP-1 cells (assay: IL-1β production in PMA-differentiated THP-1 cells stimulated with gramicidin (hTHP-1 assay, 2% fetal bovine serum; Procedures 1-3)). Details: Homo sapiens, THP-1, Table B1; hTHP-1 assay containing 2% fetal bovine serum, gramicidin stimulation, IL-1β readout; read-out: hTHP-1 IC50 (average).
Format: cell-based, human
How it was run: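 IL-1β released into supernatants was read by HTRF after 2 h gramicidin (5 μM) challenge. Before challenge, compounds (3-fold dilutions, top 100 μM, 0.37% DMSO) were given 1 h on THP-1 cells differentiated with PMA (20 ng/ml, 16-18 h) and held in 2% FBS medium.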

IC50	SMILES
40 to 200 nM	COC(C)(C)c1ncc(S(N)(=O)=NC(=O)Nc2c3c(cc4c2CCC4)CCC3)s1 (stereo not shown) [Example 295, N′-((1,2,3,5,6,7-hexahydro-s-indacen-4-yl)carbamoyl)-2-(2-methoxypropan-2-yl)-thiazole-5-sulfonimidamide]
40 to 200 nM	CNCc1cc(F)c(S(N)(=O)=NC(=O)Nc2c3c(cc4c2CCC4)CCC3)s1 (stereo not shown) [Compound 412]

Same assay, conditions: Homo sapiens, THP-1, Table B3; hTHP-1 assay containing 2% fetal bovine serum, gramicidin stimulation, IL-1β readout; read-out: hTHP-1 IC50

SMILES	IC50
CCn1ccc(S(N)(=O)=NC(=O)Nc2c3c(cc4c2CC4)CCC3)n1 (stereo not shown) [Example 737, 1-Ethyl-N′-((2,4,5,6-tetrahydro-1H-cyclobuta[f]inden-3-yl)carbamoyl)-1H-pyrazole-3-sulfonimidamide]	200 to 1000 nM
CC(C)(O)c1nc(CO)c(S(N)(=O)=NC(=O)Nc2c3c(cc4c2C(=O)CC4)CCC3)s1 (stereo not shown) [Example 738, 4-(Hydroxymethyl)-2-(2-hydroxypropan-2-yl)-N-((3-oxo-1,2,3,5,6,7-hexahydro-s-indacen-4-yl)carbamoyl)thiazole-5-sulfonimidamide]	1000 to 5000 nM

Continued, values first:

IC50	SMILES
> 30000 nM	NS(=O)(=NC(=O)Nc1c2c(cc3c1CCC3)CCC2)c1ccc(-c2ccccc2)s1 (single isomer, unassigned) [Example 799, (R) or (S)-N′-((1,2,3,5,6,7-hexahydro-s-indacen-4-yl)carbamoyl)-5-phenylthiophene-2-sulfonimidamide]
200 to 1000 nM	C[C@](O)(COCCOCc1ccccc1)c1ccc(S(N)(=O)=NC(=O)Nc2c3c(cc4c2CCC4)CCC3)s1 (mixture of isomers) [Example 747, (S) and (R)-5-((S)-1-(2-(benzyloxy)ethoxy)-2-hydroxypropan-2-yl)-N′-((1,2,3,5,6,7-hexahydro-s-indacen-4-yl)carbamoyl)thiophene-2-sulfonimidamide]
40 to 200 nM	C[C@](O)(COCCO)c1ccc([S@@](N)(=O)=NC(=O)Nc2c3c(cc4c2CCC4)CCC3)s1 [Example 748, (S)-N′-((1,2,3,5,6,7-hexahydro-s-indacen-4-yl)carbamoyl)-5-((S)-2-hydroxy-1-(2-hydroxyethoxy)propan-2-yl)thiophene-2-sulfonimidamide]

Same assay, conditions: Homo sapiens, THP-1, hTHP-1 assay containing 2% fetal bovine serum, Table B2, class symbols; read-out: IC50

SMILES	IC50
C=CCc1c2c(c(NC(=O)N=S(N)(=O)c3cc(C(C)(C)O)n(-c4ccccc4)n3)c3c1CCC3)CCC2 (stereo not shown) [Example 458, N′-((8-allyl-1,2,3,5,6,7-hexahydro-s-indacen-4-yl)carbamoyl)-5-(2-hydroxypropan-2-yl)-1-phenyl-1H-pyrazole-3-sulfonimidamide]	1000 to 5000 nM
Cc1c(C2CC2)cc2c(c1NC(=O)N=S(N)(=O)c1cnc(C(C)(C)O)s1)CCC2 (stereo not shown) [Example 468]	40 to 200 nM
CC(C)(O)c1nc(CO)c([S@@](N)(=O)=NC(=O)Nc2c3c(cc4c2C(=O)CC4)CCC3)s1 [Compound 914a]	5000 to 30000 nM
CCn1ccc([S@](N)(=O)=NC(=O)Nc2c3c(cc4c2CCC4)CCC3)n1 [Compound 904a]	40 to 200 nM
CC(C)(O)c1ncc(S(N)(=O)=NC(=O)Nc2cc3c(c4c2CCC4=O)CCC3)s1 (stereo not shown) [Example 435, 2-(2-hydroxypropan-2-yl)-N′-((1-oxo-1,2,3,6,7,8-hexahydro-as-indacen-4-yl)carbamoyl)thiazole-5-sulfonimidamide]	5000 to 30000 nM
N[S@@](=O)(=NC(=O)Nc1c2c(cc3c1CCC3)CCC2)c1ccc(C2CCNC2)cc1F (single isomer, unassigned) [Example 502, (R) or (S)-2-fluoro-N′-((1,2,3,5,6,7-hexahydro-s-indacen-4-yl)carbamoyl)-4-(pyrrolidin-3-yl)benzenesulfonimidamide]	200 to 1000 nM
CC(C)(O)c1cnc(S(N)(=O)=NC(=O)Nc2c3c(cc4c2CCC4=O)CCC3)s1 (single isomer, unassigned) [Example 589, (R) or (S)-5-(2-hydroxypropan-2-yl)-N′-((1-oxo-1,2,3,5,6,7-hexahydro-s-indacen-4-yl)carbaamoyl) thiazole-2-sulfonimidamide]	1000 to 5000 nM

Other lines, results leading:

IC50	SMILES
200 to 1000 nM	CC(C)c1cnc([S@@](N)(=O)=NC(=O)Nc2c3c(cc4c2CCC4)CCC3)c(F)c1 [Compound 903a]
1000 to 5000 nM	CCNCc1ccc([S@](N)(=O)=NC(=O)Nc2c3c(cc4c2CCC4)CCC3)cc1 [Example 700, (R)-4-((ethylamino)methyl)-N′-((1,2,3,5,6,7-hexahydro-s-indacen-4-yl)carbamoyl)-benzenesulfonimidamide]
8 to 40 nM	C[C@](O)(CO)c1ncc([S@](N)(=O)=NC(=O)Nc2c3c(cc4c2CCC4)CCC3)s1 [Example 713, (R)-2-((S)-1,2-dihydroxypropan-2-yl)-N-((1,2,3,5,6,7-hexahydro-s-indacen-4-yl)carbamoyl)thiazole-5-sulfonimidamide]

Same assay, conditions: Homo sapiens, THP-1, hTHP-1 assay containing 2% fetal bovine serum, Table B2, given as bound; read-out: IC50

IC50	SMILES
> 30000 nM	CC(C)N(C)c1ccc(S(N)(=O)=NC(=O)Nc2c3c(cc4c2CCC4)CCC3)cc1 (single isomer, unassigned) [Example 614, (S) or (R)-N′-((1,2,3,5,6,7-hexahydro-s-indacen-4-yl)carbamoyl)-4-(isopropyl(methyl)amino) benzenesulfonimidamide]

Same assay, conditions: Table B1; hTHP-1 assay containing 2% fetal bovine serum, gramicidin stimulation, IL-1β readout; read-out: hTHP-1 IC50 (average)

IC50	SMILES
1000 to 5000 nM	NCc1ccc(S(N)(=O)=NC(=O)Nc2c3c(cc4c2CCC4)CCC3)cc1 (single isomer, unassigned) [Example 411, (R) or (S)-4-(aminomethyl)-N′-((1,2,3,5,6,7-hexahydro-5-indacen-4-yl)carbamoyl)-benzenesulfonimidamide]

Same assay, conditions: Table B3; hTHP-1 assay containing 2% fetal bovine serum, gramicidin stimulation, IL-1β readout; read-out: hTHP-1 IC50

IC50	SMILES
40 to 200 nM	CC(C)(O)c1sc(S(N)(=O)=NC(=O)Nc2c3c(cc4c2CCC4)CCC3)cc1-c1ccccc1 (single isomer, unassigned) [Example 802, (R) or (S)-N′-((1,2,3,5,6,7-hexahydro-s-indacen-4-yl)carbamoyl)-5-(2-hydroxypropan-2-yl)-4-phenylthiophene-2-sulfonimidamide]
8 to 40 nM	CNC(c1ccc(S(N)(=O)=NC(=O)Nc2c3c(cc4c2CC4)CCC3)s1)C1CC1 (single isomer, unassigned) [Example 720, 5-((S) or (R)-cyclopropyl(methylamino)methyl)-N′-((2,4,5,6-tetrahydro-1H-cyclobuta[f]inden-3-yl)carbamoyl)thiophene-2-sulfonimidamide]
200 to 1000 nM	CN[C@H](c1ccc(S(N)(=O)=NC(=O)Nc2c3c(cc4c2CC4)CCC3)s1)C1CC1 (single isomer, unassigned) [Example 869, (R, S) or (S, S)-5-(cyclopropyl(methylamino)methyl)-N′-((2,4,5,6-tetrahydro-1H-cyclobuta[f]inden-3-yl)carbamoyl)thiophene-2-sulfonimidamide]
> 30000 nM	CN1CCCC(c2ccc(S(N)(=O)=NC(=O)Nc3c4c(cc5c3CC5)CCC4)c(F)c2)C1 (single isomer, unassigned) [Example 860, (R, S) or (S, S)-2-fluoro-4-(1-methylpiperidin-3-yl)-N′-((2,4,5,6-tetrahydro-1H-cyclobuta[f]inden-3-yl)carbamoyl)benzenesulfonimidamide]
200 to 1000 nM	CC(NC1CCC1)c1ccc(S(N)(=O)=NC(=O)Nc2c3c(cc4c2CC4)CCC3)c(F)c1 (single isomer, unassigned) [Example 847, (R, R) or (S, R) -4-(1-(cyclobutylamino)ethyl)-2-fluoro-N′-((2,4,5,6-tetrahydro-1H-cyclobuta[f]inden-3-yl)carbamoyl)benzenesulfonimidamide]

Same assay, conditions: hTHP-1 assay containing 2% fetal bovine serum, Table B2, class symbols; read-out: IC50

IC50	SMILES
40 to 200 nM	Cc1c(C2CC2)cc2c(c1NC(=O)N=S(N)(=O)c1cnc(C(C)(C)O)s1)CCC2 (single isomer, unassigned) [Example 563, (R) or (S)-N′-((6-cyclopropyl-5-methyl-2,3-dihydro-1H-inden-4-yl)carbamoyl)-2-(2-hydroxypropan-2-yl)thiazole-5-sulfonimidamide]
200 to 1000 nM	CN(C)C(c1ccc(S(N)(=O)=NC(=O)Nc2c3c(cc4c2CCC4)CCC3)cc1)C1CC1 (single isomer, unassigned) [Example 662]
5000 to 30000 nM	CN(C)Cc1ccc(S(N)(=O)=NC(=O)Nc2c3c(cc4c2CCC4)CCC3)cn1 (single isomer, unassigned) [Example 616, (S) or (R)-6-((dimethylamino)methyl)-N′-((1,2,3,5,6,7-hexahydro-s-indacen-4-yl)carbamoyl) pyridine-3-sulfonimidamide]
1000 to 5000 nM	CC(O)(CO)c1ncc(S(N)(=O)=NC(=O)Nc2c3c(c(C#N)c4c2CCC4)CCC3)s1 (stereo not shown) [Example 437, N′-((8-cyano-1,2,3,5,6,7-hexahydro-s-indacen-4-yl)carbamoyl)-2-(1,2-dihydroxypropan-2-yl)thiazole-5-sulfomidamide]
1000 to 5000 nM	CC(O)(CO)c1cc(F)c(S(N)(=O)=NC(=O)Nc2c3c(c(C#N)c4c2CCC4)CCC3)s1 [Example 631, (R,S) and (S,S)-N′-((8-cyano-1,2,3,5,6,7-hexahydro-s-indacen-4-yl)carbamoyl)-5-(1,2-dihydroxypropan-2-yl)-3-fluorothiophene-2-sulfonimidamide]
200 to 1000 nM	CNCc1cc(F)c(S(N)(=O)=NC(=O)Nc2c3c(cc4c2CCC4)CCC3)s1 (single isomer, unassigned) [Example 571, (S) or (R)-3-fluoro-N′-((1,2,3,5,6,7-hcxahydro-s-indacen-4-yl)carbamoyl)-5-((methylamino)methyl) thiophene-2-sulfonimidamide]

Same assay, conditions: hTHP-1 assay containing 2% fetal bovine serum, Table B2, given as bound; read-out: IC50

IC50	SMILES
> 30000 nM	CN(C)C(c1ccc(S(N)(=O)=NC(=O)Nc2c3c(cc4c2CCC4)CCC3)cc1)C(F)F (single isomer, unassigned) [Example 646, (R,S) or (S,S)-4-(-1-(dimethylamino)-2,2-difluoroethyl)-N′-((1,2,3,5,6,7-hexahydro-s-indacen-4-yl)carbamoyl) benzenesulfonimidamide]
